Measured values: the METLIN SMRT retention time set (Domingo-Almenara et al. 2019)

Assay: gradient 5% acetonitrile 3 min, to 50% in 2 min, to 85% in 15 min, held 3 min, 100 µL/min
Details: column: Zorbax Extend-C18 2.1 x 50 mm; eluents: water / acetonitrile, 0.1% formic acid
How it was run: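 In both positive and negative ionization mode, a quadrupole time-of-flight mass spectrometer coupled to HPLC analyzed pure standards run in mixtures of ~100 molecules. The Zorbax Extend-C18 column (2.1 × 50 mm, 1.8 μm) was operated at 100 μL/min with water and acetonitrile, each containing 0.1% formic acid. The dead volume was 40 μL and the dwell volume 900 μL. Retention time came from adduct peaks that were computationally picked and individually inspected by hand.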

| SMILES | RP-LC retention time [s] |
| --- | --- |
| COc1ccc(-c2cc3c4nn(CC(=O)NC(C)C)c(=O)n4ccn3n2)cc1 | 758 |
| Cn1cc(-c2cc3n(n2)CCC(=O)N3CC(=O)NCc2cccnc2)c2ccccc21 | 566 |
| O=C(Nc1nccs1)C1CCN(C(=O)c2ccc[nH]c2=O)CC1 | 558 |
| O=C(c1ccsc1)N1CCC(N(C(=O)C2CC2)C2CCOCC2)CC1 | 662 |
| CCOC(=O)c1cccc(Nc2nc(-c3cccnc3)nc3ccccc23)c1 | 832 |
| COc1ccc(-c2nc(-c3cccc(-c4ccn[nH]4)c3)no2)cc1OC | 905 |
| CCn1c(=O)c(N2CCN(C(=O)Nc3ccccc3Br)CC2)nc2ccccc21 | 1010 |
| Cc1noc(C)c1S(=O)(=O)N1CCC(C(C)C(=O)NCCc2c[nH]c3ccccc23)CC1 (centres undefined) | 858 |
| COc1ccc(CCS(=O)(=O)NCC2(O)CCOCC2)cc1 | 758 |
| CCn1c(=O)c(NCc2ccc(C)c(C)c2)nc2ccncc21 | 672 |
| Cc1nc(-c2cn(C(C)C)c3ncccc23)sc1C(=O)Nc1ccc(F)cc1 | 947 |
| O=C(NCc1ccc(F)cc1)c1nc(Cn2c(=O)oc3ccc(Cl)cc32)no1 | 942 |
| O=C(c1ccsc1)N1CCC2(CC1)NCc1ccccc1-n1ccnc12 | 588 |
| CCc1ccc(-c2cc(C(F)(F)F)on2)cc1S(=O)(=O)Nc1ccc(S(N)(=O)=O)cc1 | 947 |
| Cc1cc(C)c2c(N3CCSCC3)nc(C(=O)NCc3ccccn3)nc2n1 | 567 |
| O=C(Cn1c(-c2cnccn2)nc2ccccc21)N1CCN(c2ccccc2F)CC1 | 750 |
| COCCN1CCn2cc(S(=O)(=O)Nc3ccc(C#N)cc3)cc2C1=O | 671 |
| COc1ccc(C(=O)N2CCC(C(=O)NCCc3csc(-c4cccs4)n3)CC2)cc1OC | 725 |
| Cc1oc(-c2ccc(NC(=O)CC3CCCCC3)cc2)nc1Cn1cccn1 | 966 |
| CCc1ccc(OCC(=O)Nc2nc(-c3ccc(F)cc3F)cs2)cc1 | 1260 |

| SMILES | RP-LC retention time [s] |
| --- | --- |
| COc1ccc(OC)c(Nc2c(C(=O)N3CCC(C)CC3)cnc3nc(C)ccc23)c1 | 662 |
| COc1cccc(C(=O)Nc2c3c(nn2C(C)(C)C)CS(=O)(=O)C3)c1 | 752 |
| COCc1ncc(C)n1CC1CN(C(=O)C2(c3ccc(OC)cc3)CC2)C1 | 625 |
| Cc1ccc(-c2ccc(N3CCCC(C(=O)NCCCOC(C)C)C3)nn2)cc1C (centres undefined) | 708 |
| CCC(=O)N1CCc2sc(C(=O)NC3CCN(Cc4ccccc4)CC3)cc2C1 | 604 |
| O=C(CCc1nc(-c2ccc(N3CCCCC3)cc2)no1)NCCC1=CCCCC1 | 1090 |
| O=C(NC1CCCCC1)C1CCN(Cc2cc3ccccc3n2Cc2ccc(Cl)cc2)CC1 | 853 |
| COc1ccc(NC(=O)CSc2nnc3c4sc(N5CCCC5)nc4ncn23)cc1 | 754 |
| Cn1c(=O)n(C)c2cc(CNc3ccc(C(=O)O)c(Cl)c3)ccc21 | 697 |
| O=C(NCC1CCCO1)c1nnn(-c2ccc(F)cc2)c1-c1ccncc1 (centres undefined) | 679 |
| Cc1sc2ccn(Cc3ccc(F)cc3)c(=O)c2c1C(=O)NC1CC1 | 759 |
| Cc1ccc(C)c(C(=O)NCCc2cn(CC(C)C)c3ncccc23)c1 | 892 |
| COCCc1noc(COC2CCN(C(=O)C3CCCO3)CC2)n1 (centres undefined) | 618 |
| CCC(C(=O)NCCc1c(C)nn(CC)c1C)n1c2ccccc2c2cnn(C)c(=O)c21 (centres undefined) | 698 |
| COc1cccc(Cn2nc3n(CCC(=O)NC4CCCC4)c(=O)c4ccccc4n3c2=O)c1 | 873 |
| CCc1cccc(NC(=O)N2CCCC2c2nc(-c3ccccc3OC)no2)c1 (centres undefined) | 970 |
| COc1ccc(Cl)cc1NC(=O)CN1C(=O)NC2(CCCCC2C)C1=O (centres undefined) | 838 |
| CCC(C)C(NC(=O)c1cccc(F)c1)C(=O)Nc1nc2ccccc2[nH]1 (centres undefined) | 748 |
| Cc1ccc(-c2nnc(Cc3nc(-c4ccccc4F)no3)o2)cc1F | 1100 |
| O=C(NCCn1c(=O)n(Cc2ccccc2)c2cccnc21)c1ccccn1 | 719 |

| SMILES | RP-LC retention time [s] |
| --- | --- |
| COC(=O)[C@H](Cc1c[nH]c2ccccc12)NC(=O)c1cccc(-n2cnnn2)c1 | 753 |
| CCc1ccc(N2CC(c3noc(-c4ccccc4Cl)n3)CC2=O)cc1 (centres undefined) | 1050 |
| CCOC(=O)N1CCN(c2cc(-c3nc(-c4cccc(F)c4)no3)c3ccccc3n2)CC1 | 1420 |
| CCN(CC)CCNC(=O)Cc1c(C)nc2c(-c3ccc(F)cc3)c(C)nn2c1C | 661 |
| Cn1cccc1C(=O)N1CCC2(CC1)NC(=O)N(Cc1ccc(Cl)cc1)C2=O | 817 |
| O=C1CC(c2ccccc2)Oc2ccccc21 (centres undefined) | 932 |
| CCCn1cnnc1C1CCCCN1C(=O)NCc1ccc(OC)cc1 (centres undefined) | 659 |
| COCCC1CCOC2(CCN(C(=O)C3CCN(C(C)=O)CC3)CC2)C1 (centres undefined) | 646 |
| COc1ccc(NC(=O)Cn2c(=O)c(CCC(=O)NC3CCCC3)nc3ccccc32)c(OC)c1 | 792 |
| CCNc1cc(N2CCCC(CCC(=O)NCCN3CCN(C)CC3)C2)ncn1 (centres undefined) | 541 |
| O=C1COc2ccc(S(=O)(=O)N3CCC(C(=O)NCc4ccc(Cl)cc4)CC3)cc2N1 | 832 |
| O=C(CCSc1ccccc1)NCC(c1ccco1)N1CCOCC1 (centres undefined) | 574 |
| CCn1cc(-c2nc(C)c(C(=O)NCc3cccc(F)c3)s2)c2cccnc21 | 947 |
| O=C(C1=CN(c2ccc(Cl)cc2)c2cc(Cl)ccc2S1(=O)=O)N1CCOCC1 | 875 |
| COc1ccc(-n2c(=O)n(C)c(=O)c3cc(C(=O)Nc4ccc(F)c(C)c4)cnc32)cc1 | 955 |
| c1ccc(OCc2nc(-c3ccc(-c4csc(C5CC5)n4)cc3)no2)cc1 | 1330 |
| CCN1CCn2cc(S(=O)(=O)N3CCN(c4ccccc4Cl)CC3)cc2C1=O | 892 |
| COCCCN1CN=C(Nc2nc(C)c3cccc(OC)c3n2)NC1 | 615 |
| CCCN1C(=O)CN(S(=O)(=O)c2ccccc2)CC1(C)C(=O)NCc1ccc(F)cc1 (centres undefined) | 827 |
| O=C(Nc1ccc(N2CCOCC2)c(Br)c1)c1ccc2c(c1)OCCCO2 | 959 |

Now from value to molecule:

| RP-LC retention time [s] | SMILES |
| --- | --- |
| 902 | O=c1ccn(-c2cccc(F)c2)nc1-c1nc(-c2ccc(F)cc2)no1 |
| 1290 | CCOc1ccc(-c2csc(NC(=O)CCCOc3ccc(CC)cc3)n2)cc1 |
| 883 | Cc1ccc(CNC(=O)c2ccc3c(c2)N(C(=O)c2ccc(F)cc2)CC3)o1 |
| 877 | COC(=O)c1ccc(N2Cc3cc(Cl)ccc3OCC2=O)cc1 |
| 606 | CC(=O)Nc1ccc(CCc2nc3ccc(C(=O)NCc4ccc(C)o4)cc3[nH]2)cc1 |
| 854 | CCCC(=O)Nc1ccc(OCc2cc(C(=O)NC3CCCC3)no2)cc1 |
| 618 | CCCNC(=O)CC1=C2CCCCC2NC1=O (centres undefined) |
| 852 | O=C(NCCc1csc(-c2cccs2)n1)C1CCN(S(=O)(=O)c2cccs2)CC1 |
| 945 | COc1ccc(-c2noc(Cc3nnc(-c4cccc(C)c4)o3)n2)cc1OC |
| 655 | Cc1ccn2cc(-c3ccc(NC(=O)c4ccc([N+](=O)[O-])cc4)cc3)nc2n1 |
| 991 | C=CCn1c(C)c(CC(=O)Nc2ccc(C)cc2)c(=O)n2nc(-c3ccc(C)cc3)nc12 |
| 787 | CCCONC(=O)Nc1ccccc1[N+](=O)[O-] |
| 1200 | CC(C)(C)c1cc(C(=O)Nc2ccc(C#N)cc2)nc2ccnn12 |
| 668 | CC(O)(CNC(=O)C(=O)Nc1cccc(N2CCCCC2=O)c1)c1ccccc1 (centres undefined) |
| 687 | CN(C)CCNc1nnc(-c2nc(-c3ccc(F)cc3)no2)c2ccccc12 |
| 766 | Cc1ccc(Cl)cc1NC(=O)CC1C(=O)NCCN1C(=O)NC1CCCCC1 (centres undefined) |
| 698 | Cc1c(S(=O)(=O)NCC(c2cccnc2)c2cn(C)c3ccccc23)cnn1C(F)F (centres undefined) |
| 1250 | COc1ccccc1-c1noc(-c2nnn3c2COC(c2ccc(C)cc2C)C3)n1 (centres undefined) |
| 774 | Cc1cc(C2CCCN2C(=O)Nc2cccc(C)c2C)no1 (centres undefined) |
| 616 | CC(C)Oc1ccccc1CN1C[C@@H]2C(=O)N(C)C(=O)[C@@H]2C1 |
| 671 | COc1ccc2nccc(/C=C/c3ccnc4ccc(OC)cc34)c2c1 |
| 670 | CCOC(=O)Cc1csc(NC(=O)CNC(=O)c2c[nH]c3ccccc23)n1 |
| 796 | O=C(Nc1ccccc1)C1CC(=O)N(CCc2c[nH]c3ccc(F)cc23)C1 (centres undefined) |
| 584 | CCCN(CCC)CCCNC(=O)C1CCCN(c2nnc(N3CCCC3=O)s2)C1 (centres undefined) |
| 751 | CCSc1ccccc1C(=O)Nc1nnc(-c2ccsc2)o1 |
| 567 | O=C(NCCN1CCCCC1)C1CCN(c2ccc(-c3ccc(F)cc3)nn2)CC1 |
| 886 | COc1ccc(C(=O)N2CCC3(CC2)N=C(c2ccc(Br)cc2)NO3)c(OC)c1 |
| 803 | Cc1ccn2cc(-c3ccc(NC(=O)c4ccc(C(C)(C)C)cc4)cc3)nc2n1 |
| 873 | Cc1cc(C)cc(OCc2nc(CCN(C)C(=O)c3ccco3)no2)c1 |
